In PubChem BioAssay (NCI):
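These data come from cells grown in 96-well plates and exposed to compound for 48 hours at five concentrations. TGI is the concentration that stops growth completely.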

How the values were obtained:
Assay in all cases: inhibition of tumour cell growth, NCI panel, 48 h
[1] = tested on: HCT-15 colon
[2] = tested on: SK-MEL-28 melanoma
[3] = tested on: SK-MEL-5 melanoma
[4] = tested on: HCT-116 colon
[5] = tested on: TK-10 renal
[6] = tested on: HOP-18 NSCLC
[7] = tested on: SNB-75 CNS
[8] = tested on: NCI-H460 lung
[9] = tested on: DLD-1 colon
[10] = tested on: UACC-257 melanoma
[11] = tested on: DMS 273 small cell lung
[12] = tested on: UACC-62 melanoma
[13] = tested on: SN12C renal
[14] = tested on: LXFL 529 NSCLC
[15] = tested on: SF-268 CNS
[16] = tested on: SF-539 CNS
[17] = tested on: MALME-3M melanoma
[18] = tested on: EKVX NSCLC
[19] = tested on: OVCAR-4 ovarian
[20] = tested on: NCI-H522 lung
[21] = tested on: KM12 colon
[22] = tested on: HOP-92 NSCLC
[23] = tested on: A549 NSCLC
[24] = tested on: M19-MEL melanoma
[25] = tested on: NCI-H23 lung
[26] = tested on: UO-31 renal
[27] = tested on: SNB-19 CNS
[28] = tested on: IGROV1 ovarian
[29] = tested on: ACHN renal
[30] = tested on: SK-MEL-2 melanoma
[31] = tested on: OVCAR-5 ovarian
[32] = tested on: HCC-2998 colon
[33] = tested on: OVCAR-3 ovarian
[34] = tested on: RPMI-8226 leukemia
[35] = tested on: SNB-78 CNS
[36] = tested on: A498 renal
[37] = tested on: HOP-62 NSCLC
[38] = tested on: SF-295 CNS
[39] = tested on: HT29 colon
[40] = tested on: COLO 205 colon
[41] = tested on: K-562 leukemia
[42] = tested on: SW-620 colon
[43] = tested on: OVCAR-8 ovarian
[44] = tested on: NCI-H226 lung
[45] = tested on: SK-OV-3 ovarian
[46] = tested on: U251 CNS
[47] = tested on: 786-0 renal
[48] = tested on: M14 melanoma
[49] = tested on: HL-60(TB) leukemia
[50] = tested on: CAKI-1 renal
[51] = tested on: MOLT-4 leukemia
[52] = tested on: SR leukemia
[53] = tested on: CCRF-CEM leukemia
[54] = tested on: KM20L2 colon
[55] = tested on: DMS 114 small cell lung
[56] = tested on: XF 498 CNS
[57] = tested on: RXF 393 renal
[58] = tested on: LOX IMVI melanoma
[59] = tested on: RXF-631 renal

Clc1ccc(C2=NOC3C4CCC(C4)C23)cc1 (stereo unspecified)
TGI [1]: > 100 µM | TGI [2]: > 100 µM | TGI [3]: > 100 µM | TGI [4]: > 100 µM | TGI [5]: > 100 µM | TGI [6]: > 100 µM | TGI [7]: > 100 µM | TGI [8]: > 100 µM | TGI [9]: > 100 µM | TGI [10]: > 100 µM | TGI [11]: > 100 µM | TGI [12]: > 100 µM | TGI [13]: > 100 µM | TGI [14]: > 100 µM | TGI [15]: > 100 µM | TGI [16]: > 100 µM | TGI [17]: > 100 µM | TGI [18]: > 100 µM | TGI [19]: > 100 µM | TGI [20]: > 100 µM | TGI [21]: > 100 µM | TGI [22]: > 100 µM | TGI [23]: > 100 µM | TGI [24]: > 100 µM | TGI [25]: > 100 µM | TGI [26]: > 100 µM | TGI [27]: > 100 µM | TGI [28]: > 100 µM | TGI [29]: > 100 µM | TGI [30]: > 100 µM | TGI [31]: > 100 µM | TGI [32]: > 100 µM | TGI [33]: > 100 µM | TGI [34]: > 100 µM | TGI [35]: > 100 µM | TGI [36]: > 100 µM | TGI [37]: > 100 µM | TGI [38]: > 100 µM | TGI [39]: > 100 µM | TGI [40]: > 100 µM | TGI [41]: > 100 µM | TGI [42]: > 100 µM | TGI [43]: > 100 µM | TGI [44]: > 100 µM | TGI [45]: > 100 µM | TGI [46]: > 100 µM | TGI [47]: > 100 µM | TGI [48]: > 100 µM | TGI [49]: > 100 µM | TGI [50]: > 100 µM | TGI [51]: > 100 µM | TGI [52]: > 100 µM | TGI [53]: > 100 µM

C/C=C1\CCC2c3[nH]c4ccccc4c3CCN2C1 (stereo unspecified)
TGI [2]: > 100 µM | TGI [3]: > 100 µM | TGI [4]: > 100 µM | TGI [5]: > 100 µM | TGI [7]: > 100 µM | TGI [8]: > 100 µM | TGI [9]: > 100 µM | TGI [11]: > 100 µM | TGI [12]: > 100 µM | TGI [13]: > 100 µM | TGI [14]: > 100 µM | TGI [15]: > 100 µM | TGI [16]: > 100 µM | TGI [17]: > 100 µM | TGI [18]: > 100 µM | TGI [19]: > 100 µM | TGI [20]: > 100 µM | TGI [54]: > 100 µM | TGI [21]: > 100 µM | TGI [22]: 99.7 µM | TGI [23]: > 100 µM | TGI [24]: > 100 µM | TGI [25]: > 100 µM | TGI [26]: > 100 µM | TGI [27]: > 100 µM | TGI [28]: > 100 µM | TGI [29]: > 100 µM | TGI [55]: > 100 µM | TGI [30]: > 100 µM | TGI [56]: > 100 µM | TGI [33]: > 100 µM | TGI [35]: > 100 µM | TGI [36]: > 100 µM | TGI [37]: > 100 µM | TGI [38]: > 100 µM | TGI [39]: > 100 µM | TGI [41]: > 100 µM | TGI [42]: > 100 µM | TGI [43]: > 100 µM | TGI [44]: > 100 µM | TGI [45]: > 100 µM | TGI [57]: > 100 µM | TGI [46]: > 100 µM | TGI [47]: > 100 µM | TGI [48]: 75.8 µM | TGI [49]: > 100 µM | TGI [50]: > 100 µM | TGI [51]: > 100 µM | TGI [52]: > 100 µM | TGI [53]: > 100 µM

CCCCCCCCCCCCCCNCC(OCC)OCC
TGI [1]: 23.2 µM | TGI [2]: 32.5 µM | TGI [3]: 27.9 µM | TGI [4]: 23.1 µM | TGI [5]: 32.7 µM | TGI [6]: 30.3 µM | TGI [7]: 23 µM | TGI [8]: 34.3 µM | TGI [9]: 28.3 µM | TGI [10]: 31.2 µM | TGI [12]: 33 µM | TGI [13]: 27.9 µM | TGI [14]: 29 µM | TGI [15]: 36.7 µM | TGI [16]: 29.7 µM | TGI [17]: 32 µM | TGI [18]: 34.7 µM | TGI [19]: 28.6 µM | TGI [20]: 19.9 µM | TGI [54]: 24.9 µM | TGI [21]: 22.2 µM | TGI [22]: 26.4 µM | TGI [23]: 37.6 µM | TGI [24]: 30.5 µM | TGI [25]: 30.5 µM | TGI [26]: 22.9 µM | TGI [27]: 31.8 µM | TGI [28]: 30.3 µM | TGI [29]: 27 µM | TGI [55]: 25.7 µM | TGI [30]: 28.6 µM | TGI [31]: 28.6 µM | TGI [58]: 32.5 µM | TGI [56]: 27.4 µM | TGI [32]: 27.3 µM | TGI [33]: 33.7 µM | TGI [35]: 33.5 µM | TGI [36]: 28.5 µM | TGI [37]: 31.6 µM | TGI [38]: 30.6 µM | TGI [39]: 11.4 µM | TGI [40]: 28 µM | TGI [42]: 31.9 µM | TGI [43]: 40.4 µM | TGI [44]: 37.6 µM | TGI [45]: 32.8 µM | TGI [57]: 22.9 µM | TGI [46]: 30.5 µM | TGI [47]: 33 µM | TGI [48]: 27.5 µM | TGI [49]: 11.5 µM | TGI [53]: 24.5 µM

COc1cc2ccc(CC(N)=O)cc2cc1OC
TGI [1]: > 100 µM | TGI [2]: > 100 µM | TGI [3]: > 100 µM | TGI [4]: > 100 µM | TGI [5]: > 100 µM | TGI [6]: > 100 µM | TGI [7]: > 100 µM | TGI [10]: > 100 µM | TGI [11]: > 100 µM | TGI [12]: > 100 µM | TGI [13]: > 100 µM | TGI [14]: > 100 µM | TGI [15]: > 100 µM | TGI [16]: > 100 µM | TGI [17]: > 100 µM | TGI [18]: > 100 µM | TGI [19]: > 100 µM | TGI [20]: > 100 µM | TGI [54]: > 100 µM | TGI [21]: > 100 µM | TGI [22]: > 100 µM | TGI [23]: > 100 µM | TGI [24]: > 100 µM | TGI [25]: > 100 µM | TGI [26]: > 100 µM | TGI [27]: > 100 µM | TGI [28]: > 100 µM | TGI [55]: > 100 µM | TGI [30]: > 100 µM | TGI [31]: > 100 µM | TGI [59]: > 100 µM | TGI [58]: > 100 µM | TGI [56]: > 100 µM | TGI [33]: > 100 µM | TGI [34]: > 100 µM | TGI [35]: > 100 µM | TGI [37]: > 100 µM | TGI [38]: > 100 µM | TGI [39]: > 100 µM | TGI [40]: > 100 µM | TGI [41]: > 100 µM | TGI [42]: > 100 µM | TGI [43]: > 100 µM | TGI [44]: > 100 µM | TGI [45]: > 100 µM | TGI [57]: > 100 µM | TGI [46]: > 100 µM | TGI [47]: > 100 µM | TGI [48]: > 100 µM | TGI [51]: > 100 µM | TGI [53]: > 100 µM
